Experimental data from US6350743B1, “Cytotoxic pyridoacridine alkaloids” (Instituto Biomar, S.A., priority 1997, dated 2002).

How the values were obtained:
Format in all cases: cell-based
[1] = test system: P-388 (suspension culture of a lymphoid neoplasm from DBA/2 mouse); test: Antitumor screening, P-388 cell growth; details: P388, 72 h, P-388 cells, three days of incubation, approximate IC50 vs control growth
Experimental: (§1) Cells were maintained in logarithmic phase of growth in Eagle's Minimum Essential Medium, with Earle's Balanced Salts, with 2.0 mM L-glutamine, with non-essential amino acids, without sodium bicarbonate (EMEM/neaa); supplemented with 10% Fetal Calf Serum (FCS), 10^−2 M sodium bicarbonate and 0.1 g/l penicillin+G streptomycin sulfate.
(§2) A screening procedure has been carried out to determine and compare the antitumor activity of these compounds, using an adapted form of the method described by Bergeron et al. (Reference 15: Raymond J. Bergeron, Paul F. Cavanaugh, Jr., Steven J. Kline, Robert G. Hughes, Jr., Gary T. Elliot and Carl W. Porter. Antineoplastic and antiherpetic activity of spermidine catecholamide iron chelators. Biochem. Bioph. Res. Comm. 1984, 121, 848-854). The antitumor cells employed were P-388 (suspension culture of a lymphoid neoplasm from DBA/2 mouse), A-549 (monolayer culture of a human lung carcinoma), HT-29 (monolayer culture of a human colon carcinoma) and MEL-28 (monolayer culture of a human melanoma).
P-388 cells were seeded into 16 mm wells at 1×10^4 cells per well in 1 ml aliquots of MEM 5FCS containing the indicated concentration of drug. A separate set of cultures without drug was seeded as control growth to ensure that cells remained in exponential phase of growth. All determinations were carried out in duplicate. […]

[2] = test system: A-549 (monolayer culture of a human lung carcinoma); test: Antitumor screening, A-549 cell growth (Crystal Violet); details: A549, 72 h, A-549 cells, three days of incubation, approximate IC50
Experimental: as §1, §2
(§3) A-549, HT-29 cells were seeded into 16 mm wells at 2×10^4 cells per well in 1 ml aliquots of MEM 10FCS containing the indicated concentration of drug. […] An approximately IC50 was determined by comparing the growth in wells with drug to the growth in wells control.

[3] = test system: HT-29 (monolayer culture of a human colon carcinoma); test: Antitumor screening, HT-29 cell growth (Crystal Violet); details: 72 h, HT-29 cells, three days of incubation, approximate IC50
Experimental: as §1, §2, §3

[4] = test system: MEL-28 (monolayer culture of a human melanoma); test: Antitumor screening, MEL-28 cell growth; details: SK-MEL-28, MEL-28 cells, approximate IC50
Experimental: as §1, §2, §3

IC50 [1]: 1330 nM
IC50 [2]: 270 nM
IC50 [3]: 2660 nM
IC50 [4]: 530 nM
SMILES: CN(C)CCc1c2c(c3nccc4c3c1Nc1ccccc1-4)NC(=O)CS2 [Shermilamine D]
